# Reference: ChEMBL document CHEMBL4251744, “Identification of Lycopodium Alkaloids Produced by an Ultraviolet-Irradiated Strain of Paraboeremia, an Endophytic Fungus from Lycopodium serratum var. longipetiolatum” (J Nat Prod, 2018)
# Experiments:
# Acetylcholinesterase [1] = target: T1, Acetylcholinesterase (Homo sapiens, UniProt P22303); experiment: Inhibition of AChE (unknown origin) using acetylthiocholine iodide as substrate by Ellman's method
# Acetylcholinesterase [2] = target: T1, Acetylcholinesterase; experiment: Inhibition of AChE (unknown origin)
# T1 sequence (P22303 whole entry): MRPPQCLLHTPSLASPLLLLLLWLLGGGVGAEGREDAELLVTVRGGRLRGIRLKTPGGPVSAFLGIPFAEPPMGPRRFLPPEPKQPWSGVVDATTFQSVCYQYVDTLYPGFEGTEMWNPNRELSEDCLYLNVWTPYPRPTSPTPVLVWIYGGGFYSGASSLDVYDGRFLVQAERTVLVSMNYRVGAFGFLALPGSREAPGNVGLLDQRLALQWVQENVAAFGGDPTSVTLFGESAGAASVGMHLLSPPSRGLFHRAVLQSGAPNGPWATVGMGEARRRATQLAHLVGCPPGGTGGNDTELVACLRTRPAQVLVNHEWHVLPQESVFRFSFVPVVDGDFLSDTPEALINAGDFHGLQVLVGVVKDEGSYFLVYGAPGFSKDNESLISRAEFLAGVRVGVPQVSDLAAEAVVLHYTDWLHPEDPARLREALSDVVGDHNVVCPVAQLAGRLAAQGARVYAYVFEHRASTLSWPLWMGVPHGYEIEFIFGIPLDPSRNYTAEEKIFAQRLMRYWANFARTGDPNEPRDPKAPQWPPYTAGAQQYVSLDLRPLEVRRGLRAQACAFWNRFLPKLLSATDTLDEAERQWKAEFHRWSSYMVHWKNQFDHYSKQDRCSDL
Structure (SMILES),IC50 (Acetylcholinesterase [1]),IC50 (Acetylcholinesterase [2])
C[C@@H]1C[C@H]2CC(=O)[C@H]3CCC[N+]4([O-])CCC[C@@H]2[C@]34C1 (stereo partly drawn),> 100 µM,–
C[C@@H]1C[C@H]2CC(=O)[C@H]3CCCN4CCC[C@@H]2[C@]34C1,> 100 µM,–
C[C@@H]1C[C@H]2CC(=O)[C@H]3CCC[N+]4([O-])CCC[C@]2(O)[C@]34C1 (stereo partly drawn),–,0.59 µM
